Results reported in US11058781B2, “Diazacarbazole derivatives as tau-PET-ligands” (Hoffmann-La Roche Inc., priority 2013, dated 2021).

Tests used:
[1] = test system: native tau aggregates; experiment: TAU radioligand in-vitro displacement assay ([3H]T808 autoradiography on AD brain sections); assay type: binding; details: human AD brain sections; radioligand [3H]T808 10 nM; 50 mM Tris pH 7.4, room temperature, 30 min
Protocol: This in vitro binding assay assesses the affinity of compounds for native tau aggregates. The compounds are co-incubated with the well-established tau specific radioligand [^3H]T808 and the compound's displacement potency of [^3H]T808 binding is determined by in vitro autoradiography using human Alzheimer's disease (AD) brain sections (see FIG. 2).
AD human brains are purchased from Banner Sun Health Research Institute (Sun City, Ariz., USA). Pathological diagnosis of AD is made according to standard NIA-Reagan Institute criteria based on neuropathological data. The radioligand [^3H]T808 was synthesized in-house ([^3H]-2-[4-(2-Fluoro-ethyl)-piperidin-1-yl]-benzo[4,5]imidazo[1,2-a]pyrimidine, radiochemical purity 99.0%). […] For the autoradiography FujiFilm Imaging Plates (BAS-IP TR 2025) are exposed to the sections and read with a FujiFilm IP reader (BAS-5000). […]
The signal intensity (Dens−PSL/mm2) in the region of interest (ROI) of the autoradiogram is quantified with the software MCID analysis (version 7.0, Imaging Research Inc.). The specific binding (SB) of [^3H]T808 binding in absence or in presence of a compound is calculated by subtracting the non-specific binding signal in the white matter, thus yielding SB[3H]T808 only and SBcompound. The % displacement by the various compounds is calculated as following: % displacement=100−(SBcompound/SB[3H]T808 only)*100. […]

[2] = test system: tau aggregates; experiment: Autoradiogram of the tritiated radioligand on a human cortical brain section (Braak V AD patient); assay type: binding; details: radioligand concentration 3.2 nM, Braak V staged AD patient
Chain of tau aggregates (P10636 623-708 limits assumed): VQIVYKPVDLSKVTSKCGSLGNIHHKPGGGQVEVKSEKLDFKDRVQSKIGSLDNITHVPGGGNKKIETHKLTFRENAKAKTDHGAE
Protocol: FIG. 1: Autoradiogram of ^3H-2-(6-fluoro-pyridin-3-yl)-9H-dipyrido[2,3-b;3′,4′-d]pyrrole.
Autoradiogram of ^3H-2-(6-fluoro-pyridin-3-yl)-9H-dipyrido[2,3-b;3′,4′-d]pyrrole incubated with a human cortical brain section obtained from a Braak V staged AD patient. The radioligand concentration was 3.2 nM.

Compound | % displacement of [^3H]T808 (10 nM) [1] | staining pattern in autoradiogram [2]
Fc1ccc(-c2ccc3c(n2)[nH]c2ccncc23)cn1 [Example 1, 2-(6-Fluoro-pyridin-3-yl)-9H-dipyrido[2,3-b;3′,4′-d]pyrrole] | 43% | –
^3H-2-(6-Fluoro-pyridin-3-yl)-9H-dipyrido[2,3-b;3′,4′-d]pyrrole [Example 2] | – | punctate staining of tau aggregates in a layered distribution pattern
